Reference: patent publication US20260034277A1, “SYSTEMS AND METHODS FOR PATHOGEN INACTIVATION OF BLOOD PRODUCTS” (Cerus Corporation, priority 2024, published 2026)

Columns and labels:
[1] = Residual amotosalen (S-59) pre- and post-UVA in treated platelets, HPLC, manual dosing; assay type: physicochemical; conditions: for Post-UVA S-59: platelets 47% plasma/53% PAS
Procedure: Multiple studies were performed to determine the level of residual compound remaining after photochemical treatment of platelets with a psoralen for pathogen inactivation. More specifically, the studies were performed using a range of platelet volumes (e.g., 200 mL-450 mL; 50 mL volume increments) and using a single initial input concentration of the psoralen compound, amotosalen (S-59) by changing input volume. For each volume tested, units of platelets, prepared in 47% plasma/53% PAS, were pooled and split into two to three individual units, each in an illumination container of an INTERCEPT® Blood System processing set. The individual units were each dosed with amotosalen from an initial starting concentration (e.g., stock solution) at a volume needed to achieve a final 70 μM target concentration for each platelet volume, mixed well, and subjected to illumination with UVA light. The doses of UVA light tested for each volume included, for example, one or more light doses ranging from 2.5 J/cm^2 to 6.5 J/cm^2. (e.g., 2.5-4.5 J/cm^2 for 200 mL, 3.5-4.0 J/cm^2 for 250 mL 4.5-6.5 J/cm^2 for 300 mL, 5.2 J/cm^2 for 350 mL, 5.5-6.5 J/cm^2 for 400 mL, 6.4-6.5 J/cm^2 for 450 mL). UVA treatment was performed in the illumination container using an illuminator device with LED light (e.g., narrow bandwidth) having peak wavelength between 340-350 nm. Samples were collected both pre- and post-UVA illumination for HPLC analysis of amotosalen concentration.
From the multiple studies above, UVA light doses that provided low residual amotosalen levels (e.g., less than 7.5 μM) post-UVA treatment were selected for each specified platelet volume. These light doses are shown in Table 1 below, together with a corresponding measured volume of platelets, which the light dose may be used in conjunction with. This exemplary light dose and volume relationship identified in the studies may be further defined in the graph of FIG. 4A, which plots UVA light dose versus volume for achieving low residual amotosalen levels.
Each of the 40 μM, 50 μM, 60 μM and 70 μM test conditions used 250 mL sample volumes and UVA light doses of 3.8 J/cm^2. Amotosalen concentrations were determined before and after illumination with UVA.

[2] = S-59 photoconversion in platelets after dosing-device delivery, HPLC pre- and post-illumination; assay type: physicochemical; conditions: target 55 μM
Procedure: After confirming the accuracy of S-59 dosing into PAS, the next study evaluated dosing of S-59 into a blood component, platelets suspended in plasma and PAS, and photoconversion of S-59 post-UVA treatment to determine residual S-59 levels and generate (e.g., plot) a volume to light dose curve, similar to Example 1. Different size illumination containers (1.0 L and 1.3 L) were evaluated with multiple different platelet volumes and multiple different UVA light doses used for photochemical treatment of each volume and container size.
More specifically, platelets suspended in […]/53% PAS at volumes of 200 mL, 250 mL or 300 mL in a 1.0 L illumination container, and 300 mL, 350 mL or 450 mL in a 1.3 L illumination container, were dosed at varying input volumes of the S-59 psoralen compound to achieve a target final concentration of 55 μM. Samples were taken to confirm pre-illumination S-59 concentration and each of the S-59 containing platelet volumes was then illuminated with different light doses as shown in the following Tables 8A and 8B using an illuminator device with LED light sources (e.g., narrow bandwidth) having peak wavelength between 340-350 nm.
Pathogen inactivation of both viruses and bacteria was also tested using dosing device system-based quantized dosing of amotosalen and the treatment parameters described above. In one study, four units of platelets in 47% plasma/53% PAS at a higher 450 mL volume were inoculated in a 1.3 L illumination container with bluetongue virus (BTV) at a target pathogen input concentration of approximately 5.0 log PFU/mL per unit and dosed with amotosalen (S-59) to achieve at a target concentration of 55 μM. The units were mixed, and samples were collected from each unit prior to UV illumination to determine pre-treatment viral titers and S-59 concentration. The BTV-contaminated platelet units were then subjected to a UVA light dose of 6.3 J/cm^2 using an illuminator with LED light sources having peak wavelength between 340-350 nm. Samples were collected post-illumination, and both the pre- and post-UVA illumination samples were analyzed by standard plaque assay to determine the level of virus inactivation and by HPLC to determine the S-59 concentration.
A similar study was performed with the bacterium Klebsiella pneumoniae. Four units of platelets in 47% plasma/53% PAS at a volume of 450 mL were inoculated in a 1.3 L illumination container with an overnight culture of Klebsiella pneumoniae at a target input pathogen concentration of approximately 8 log CFU/mL per unit and dosed with S-59 to achieve a target concentration of 55 μM. Samples were collected pre- and post-UVA illumination with a light dose of 6.3 J/cm^2 for determination of bacterial titers by standard colony forming unit assay and S-59 concentration by HPLC.

Compound: Cc1oc2c(C)c3oc(=O)cc(C)c3cc2c1COCCN [S-59, 3-(2-aminoethoxymethyl)-2,5,9-trimethylfuro[3,2-g]chromen-7-one]
- Post-UVA S-59 ([1]; 200 mL, target 70 μM, UVA 3.2 J/cm^2): 4.5 ± 1.5 µM
- Post-UVA S-59 ([1]; 250 mL, target 70 μM, UVA 3.8 J/cm^2): 5.0 ± 1.1 µM
- Post-UVA S-59 ([1]; 300 mL, target 70 μM, UVA 4.5 J/cm^2): 5.1 ± 1.3 µM
- Post-UVA S-59 ([1]; 350 mL, target 70 μM, UVA 5.2 J/cm^2): 5.0 ± 0.6 µM
- Post-UVA S-59 ([1]; 400 mL, target 70 μM, UVA 6.0 J/cm^2): 4.4 ± 0.8 µM
- Post-UVA S-59 ([1]; 450 mL, target 70 μM, UVA 6.4 J/cm^2): 5.2 ± 0.8 µM
- Post-UVA residual amotosalen concentration ([1]; target 40 μM, 250 mL, UVA 3.8 J/cm^2): 2.3 ± 0.7 µM
- Post-UVA residual amotosalen concentration ([1]; target 50 μM, 250 mL, UVA 3.8 J/cm^2): 3.0 ± 0.8 µM
- Post-UVA residual amotosalen concentration ([1]; target 60 μM, 250 mL, UVA 3.8 J/cm^2): 3.9 ± 1.4 µM
- Post-UVA residual amotosalen concentration ([1]; target 70 μM, 250 mL, UVA 3.8 J/cm^2): 5.0 ± 1.1 µM
- Post-UVA S-59 ([2]; 1.0 L container, 200 mL platelets, 2.8 J/cm^2): 5.22 ± 0.50 µM
- Post-UVA S-59 ([2]; 1.0 L container, 200 mL platelets, 3.0 J/cm^2): 4.40 ± 0.64 µM
- Post-UVA S-59 ([2]; 1.0 L container, 200 mL platelets, 3.2 J/cm^2): 3.71 ± 0.07 µM
- Post-UVA S-59 ([2]; 1.0 L container, 200 mL platelets, 3.4 J/cm^2): 3.09 ± 0.18 µM
- Post-UVA S-59 ([2]; 1.0 L container, 250 mL platelets, 3.4 J/cm^2): 4.25 ± 0.13 µM
- Post-UVA S-59 ([2]; 1.0 L container, 250 mL platelets, 3.6 J/cm^2): 3.83 ± 0.74 µM
- Post-UVA S-59 ([2]; 1.0 L container, 250 mL platelets, 3.8 J/cm^2): 3.81 ± 0.49 µM
- Post-UVA S-59 ([2]; 1.0 L container, 250 mL platelets, 4.0 J/cm^2): 3.11 ± 1.18 µM
- Post-UVA S-59 ([2]; 1.0 L container, 300 mL platelets, 4.1 J/cm^2): 7.13 ± 2.95 µM
- Post-UVA S-59 ([2]; 1.0 L container, 300 mL platelets, 4.3 J/cm^2): 6.85 ± 3.00 µM
- Post-UVA S-59 ([2]; 1.0 L container, 300 mL platelets, 4.6 J/cm^2): 2.86 ± 1.36 µM
- Post-UVA S-59 ([2]; 1.0 L container, 300 mL platelets, 4.8 J/cm^2): 3.63 ± 1.66 µM
- Post-UVA S-59 ([2]; 1.3 L container, 300 mL platelets, 4.1 J/cm^2): 4.64 ± 0.13 µM
- Post-UVA S-59 ([2]; 1.3 L container, 300 mL platelets, 4.3 J/cm^2): 3.43 ± 1.30 µM
- Post-UVA S-59 ([2]; 1.3 L container, 350 mL platelets, 4.8 J/cm^2): 3.54 ± 1.01 µM
- Post-UVA S-59 ([2]; 1.3 L container, 350 mL platelets, 5.0 J/cm^2): 2.98 ± 0.91 µM
- Post-UVA S-59 ([2]; 1.3 L container, 450 mL platelets, 6.1 J/cm^2): 3.79 ± 0.49 µM
- Post-UVA S-59 ([2]; 1.3 L container, 450 mL platelets, 6.3 J/cm^2): 3.56 ± 0.37 µM
- Post-UVA S-59 ([2]; BTV-inoculated units, 450 mL platelets, 1.3 L container, 6.3 J/cm^2): 3.0 ± 0.7 µM
- Post-UVA S-59 ([2]; K. pneumoniae-inoculated units, 450 mL platelets, 1.3 L container, 6.3 J/cm^2): 3.2 ± 0.5 µM
